Data published in patent US20250122191A1, “COMPOUNDS AS BCL-2 INHIBITORS” (Fochon Biosciences, Ltd, priority 2021, published 2025).

Tests used:
RS4;11-BCL-2 G101V cells = assay: Cell proliferation assay (MTS), RS4;11-BCL-2 G101V engineered cells; type: cell-based; conditions: Homo sapiens, 120 h, read-out: RS4, 11 BCL2-G101V IC50
In short: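 Inhibition of mutant BCL-2 is inferred from reduced proliferation of RS4;11 cells stably overexpressing the mutant. Compounds are tested at 1.5–10000 nM for 120 h (G101V, F104L) or 72 h (D103E, D103Y), with MTS absorbance at 490 nm used to derive IC50.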

RS4;11-BCL-2 D103E cells = assay: Cell proliferation assay (MTS), RS4;11-BCL-2 D103E engineered cells; type: cell-based; conditions: Homo sapiens, 72 h, read-out: RS4, 11 BCL2-D103E IC50
Excerpt: MTS testing kit was purchased from Promega (Madison, WI, USA). The RPMI-1640, Fetal bovine serum and Penicillin-Streptomycin were purchased from BI (Biological Industries, Beit Haemek, Israel). Puromycin was purchased from Beyotime (shanghai, China). Dimethyl sulfoxide (DMSO) was purchased from Sigma (St. Louis., MO, USA). RS4;11-BCL-2 G101V (Cobioer Lot. #: CBD2021063013P4), RS4;11-BCL-2 D103E (Cobioer Lot. #: CBD2021063013P4), RS4;11-BCL-2 D103Y (Cobioer Lot. #: CBD2022012101P4) and RS4;11-BCL-2 F104L (Cobioer Lot. #: CBD2021063014P4) cells were cultured in RPMI1640 supplemented with 1 ug/mL puromycin, 100 U/mL Penicillin-Streptomycin and 10% FBS.
To investigate whether a compound is able to inhibit the activity of BCL-2 mutation in cells, a mechanism-based assay using engineered cell lines stably overexpressing BCL-2 mutation (RS4;11-BCL-2 G101V, RS4;11-BCL-2 D103E, RS4;11-BCL-2 D103Y, and RS4;11-BCL-2 F104L) was developed. In this assay, the inhibition of BCL-2 mutation was reflected by the inhibition of cell proliferation of engineered RS4;11 cells. Cells were plated into 96-well plates at optimized cell density (RS4;11-BCL-2 G101V: 5000 cells/well; RS4;11-BCL-2 D103E: 7500 cells/well; RS4;11-BCL-2 D103Y: 7500 cells/well; RS4;11-BCL-2 F104L: 5000 cells/well). Plates were incubated at 37° C., with 5% CO2 for 4 h (RS4;11-BCL-2 G101V, RS4;11-BCL-2 F104L) and 24 h (RS4;11-BCL-2 D103E, RS4;11-BCL-2 D103Y), respectively. Compounds were serially diluted and added to the plates with the final concentrations of 10000, 3333.3, 1111.1, 370.4, 123.5, 41.2, 13.7, 4.6 and 1.5 nM. Plates were incubated at 37° C., with 5% CO2 for 120 h (RS4; 11-BCL-2 G101V, RS4; 11-BCL-2 F104L) and 72 h (RS4;11-BCL-2 D103E, RS4;11-BCL-2 D103Y), respectively. 20 μl MTS was added into each well and the plates were incubated at 37° C., with 5% CO2 exactly for 2 h. The absorbance was measured by a microplate reader at 490 nm. IC50 values were calculated using GraphPad Prism 8.0 software.

Row | IC50 (RS4;11-BCL-2 G101V cells) | IC50 (RS4;11-BCL-2 D103E cells) | Compound
1 | 1 nM | 1 nM | CC(C)c1ccccc1[C@@H]1CN(C(C)C)CCN1C1CC2(CCN(c3ccc(C(=O)NS(=O)(=O)c4cnc(NC[C@H]5CC[C@](C)(O)CC5)c([N+](=O)[O-])c4)c(Oc4cnc5[nH]cc(F)c5c4)c3)CC2)C1 [Example 185, 2-((3-fluoro-1H-pyrrolo[2,3-b]pyridin-5-yl)oxy)-N-((6-((((1r,4r)-4-hydroxy-4-methylcyclohexyl)methyl)amino)-5-nitropyridin-3-yl)sulfonyl)-4-(2-((R)-4-isopropyl-2-(2-isopropylphenyl)piperazin-1-yl)-7-azaspiro[3.5]nonan-7-yl)benzamide]
2 | 1 nM | 3 nM | CCOc1nc2[nH]cc(F)c2cc1Oc1cc(N2CCC3(CC2)CC(N2CCN(Cc4cnc(C5CC5)c(OC)c4)C[C@H]2c2ccccc2C(C)C)C3)ccc1C(=O)NS(=O)(=O)c1cnc(NC[C@H]2CC[C@](C)(O)CC2)c([N+](=O)[O-])c1 [Example 253, 4-(2-((R)-4-((6-cyclopropyl-5-methoxypyridin-3-yl)methyl)-2-(2-isopropylphenyl)piperazin-1-yl)-7-azaspiro[3.5]nonan-7-yl)-2-((6-ethoxy-3-fluoro-1H-pyrrolo[2,3-b]pyridin-5-yl)oxy)-N-((6-((((1r,4r)-4-hydroxy-4-methylcyclohexyl)methyl)amino)-5-nitropyridin-3-yl)sulfonyl)benzamide]
3 | 1 nM | 1 nM | COc1cc(CN2CCN(C3CC4(CCN(c5ccc(C(=O)NS(=O)(=O)c6cnc(NC[C@H]7CC[C@](C)(O)CC7)c([N+](=O)[O-])c6)c(Oc6cnc7[nH]cc(F)c7c6)c5)CC4)C3)[C@H](c3ccccc3C(C)C)C2)cnc1OC [Example 259, 4-(2-((R)-4-((5,6-dimethoxypyridin-3-yl)methyl)-2-(2-isopropylphenyl)piperazin-1-yl)-7-azaspiro[3.5]nonan-7-yl)-2-((3-fluoro-1H-pyrrolo[2,3-b]pyridin-5-yl)oxy)-N-((6-((((1r,4r)-4-hydroxy-4-methylcyclohexyl)methyl)amino)-5-nitropyridin-3-yl)sulfonyl)benzamide]
4 | 1 nM | 1 nM | CC(C)c1ccccc1[C@@H]1CN(C2CCOCC2)CCN1C1CC2(CCN(c3ccc(C(=O)NS(=O)(=O)c4cnc(NC[C@H]5CC[C@](C)(O)CC5)c([N+](=O)[O-])c4)c(Oc4cnc5[nH]cc(F)c5c4)c3)CC2)C1 [Example 320, 2-((3-fluoro-1H-pyrrolo[2,3-b]pyridin-5-yl)oxy)-N-((6-((((1r,4r)-4-hydroxy-4-methylcyclohexyl)methyl)amino)-5-nitropyridin-3-yl)sulfonyl)-4-(2-((R)-2-(2-isopropylphenyl)-4-(tetrahydro-2H-pyran-4-yl)piperazin-1-yl)-7-azaspiro[3.5]nonan-7-yl)benzamide]
5 | 1 nM | 1 nM | COc1cc(CN2CCN(C3CC4(CCN(c5ccc(C(=O)NS(=O)(=O)c6cnc(NC[C@H]7CC[C@](C)(O)CC7)c([N+](=O)[O-])c6)c(Oc6cc7c(F)c[nH]c7nc6OC)c5)CC4)C3)[C@H](c3ccccc3C(C)C)C2)cnc1OC [Example 123, 4-(2-((R)-4-((5,6-dimethoxypyridin-3-yl)methyl)-2-(2-isopropylphenyl)piperazin-1-yl)-7-azaspiro[3.5]nonan-7-yl)-2-((3-fluoro-6-methoxy-1H-pyrrolo[2,3-b]pyridin-5-yl)oxy)-N-((6-((((1r,4r)-4-hydroxy-4-methylcyclohexyl)methyl)amino)-5-nitropyridin-3-yl)sulfonyl)benzamide]
6 | 1 nM | 1 nM | COc1nc2[nH]cc(F)c2cc1Oc1cc(N2CCC3(CC2)CC(N2CCN(C4CCC(OC)CC4)C[C@H]2c2ccccc2C(C)C)C3)ccc1C(=O)NS(=O)(=O)c1cnc(NC[C@H]2CC[C@](C)(O)CC2)c([N+](=O)[O-])c1 (stereo partly drawn) [Example 325, 2-((3-fluoro-6-methoxy-1H-pyrrolo[2,3-b]pyridin-5-yl)oxy)-N-((6-((((1r,4r)-4-hydroxy-4-methylcyclohexyl)methyl)amino)-5-nitropyridin-3-yl)sulfonyl)-4-(2-((R)-2-(2-isopropylphenyl)-4-(4-methoxycyclohexyl)piperazin-1-yl)-7-azaspiro[3.5]nonan-7-yl)benzamide]
7 | 1 nM | 1 nM | COc1nc2[nH]cc(F)c2cc1Oc1cc(N2CCC3(CC2)CC(N2CCN(C[C@H]4COCCO4)C[C@H]2c2ccccc2C(C)C)C3)ccc1C(=O)NS(=O)(=O)c1cnc(NC[C@H]2CC[C@](C)(O)CC2)c([N+](=O)[O-])c1 [Example 328, 4-(2-((R)-4-(((S)-1,4-dioxan-2-yl)methyl)-2-(2-isopropylphenyl)piperazin-1-yl)-7-azaspiro[3.5]nonan-7-yl)-2-((3-fluoro-6-methoxy-1H-pyrrolo[2,3-b]pyridin-5-yl)oxy)-N-((6-((((1r,4r)-4-hydroxy-4-methylcyclohexyl)methyl)amino)-5-nitropyridin-3-yl)sulfonyl)benzamide]
8 |  | 1 nM | COc1nc2[nH]cc(F)c2cc1Oc1cc(N2CCC3(CC2)CC(N2CCN(Cc4ccnc5c4OCO5)C[C@H]2c2ccccc2C(C)C)C3)ccc1C(=O)NS(=O)(=O)c1cnc(NC[C@H]2CC[C@](C)(O)CC2)c([N+](=O)[O-])c1 [Example 189, 4-(2-((R)-4-([1,3]dioxolo[4,5-b]pyridin-7-ylmethyl)-2-(2-isopropylphenyl)piperazin-1-yl)-7-azaspiro[3.5]nonan-7-yl)-2-((3-fluoro-6-methoxy-1H-pyrrolo[2,3-b]pyridin-5-yl)oxy)-N-((6-((((1r,4r)-4-hydroxy-4-methylcyclohexyl)methyl)amino)-5-nitropyridin-3-yl)sulfonyl)benzamide]
9 |  | 1 nM | COc1nccc(CN2CCN(C3CC4(CCN(c5ccc(C(=O)NS(=O)(=O)c6cnc(NC[C@H]7CC[C@](C)(O)CC7)c([N+](=O)[O-])c6)c(Oc6cc7c(F)c[nH]c7nc6OC)c5)CC4)C3)[C@H](c3ccccc3C(C)C)C2)n1 [Example 165, 2-((3-fluoro-6-methoxy-1H-pyrrolo[2,3-b]pyridin-5-yl)oxy)-N-((6-((((1r,4r)-4-hydroxy-4-methylcyclohexyl)methyl)amino)-5-nitropyridin-3-yl)sulfonyl)-4-(2-((R)-2-(2-isopropylphenyl)-4-((2-methoxypyrimidin-4-yl)methyl)piperazin-1-yl)-7-azaspiro[3.5]nonan-7-yl)benzamide]
10 |  | 1 nM | [2H]C([2H])([2H])Oc1cc(CN2CCN(C3CC4(CCN(c5ccc(C(=O)NS(=O)(=O)c6cnc(NC[C@H]7CC[C@](C)(O)CC7)c([N+](=O)[O-])c6)c(Oc6cc7c(F)c[nH]c7nc6OC)c5)CC4)C3)[C@H](c3ccccc3C(C)C)C2)ccn1 [Example 164, 2-((3-fluoro-6-methoxy-1H-pyrrolo[2,3-b]pyridin-5-yl)oxy)-N-((6-((((1r,4r)-4-hydroxy-4-methylcyclohexyl)methyl)amino)-5-nitropyridin-3-yl)sulfonyl)-4-(2-((R)-2-(2-isopropylphenyl)-4-((2-(methoxy-d3)pyridin-4-yl)methyl)piperazin-1-yl)-7-azaspiro[3.5]nonan-7-yl)benzamide]
11 |  | 1 nM | COC1CCC(N2CCN(C3CC4(CCN(c5ccc(C(=O)NS(=O)(=O)c6cnc(NC[C@H]7CC[C@](C)(O)CC7)c([N+](=O)[O-])c6)c(Oc6cnc7[nH]cc(F)c7c6)c5)CC4)C3)[C@H](c3ccccc3C(C)C)C2)CC1 (stereo partly drawn) [Example 326, 2-((3-fluoro-1H-pyrrolo[2,3-b]pyridin-5-yl)oxy)-N-((6-((((1r,4r)-4-hydroxy-4-methylcyclohexyl)methyl)amino)-5-nitropyridin-3-yl)sulfonyl)-4-(2-((R)-2-(2-isopropylphenyl)-4-(4-methoxycyclohexyl)piperazin-1-yl)-7-azaspiro[3.5]nonan-7-yl)benzamide]
